From US20120178147A1, “MICROBIAL CULTURES AND METHODS FOR ANAEROBIC BIOREMEDIATION” (priority 2009, published 2012)
Values joined by “and” are separate entries in the source; they are usually repeats but may differ in a detail not shown here. Equal entries are not always repeated. “Also recorded” adds a separate entry of the source.

Tested on: BDI cultures
Test: TCC and TCS exposure: TCE reductive dechlorination by Bio-Dechlor INOCULUM
Format: cell-based
Details: for TCE completely dechlorinated to ethene in BDI / TCE transformed to VC in BDI: 1.5 μM TCC or 35 μM TCS, by day 27
Description: Cultures. Two cultures were used in this study: 1) Bio-Dechlor INOCULUM, which was obtained from Dr. Frank Loffler's laboratory at Georgia Tech; 2) DehaloR̂2 culture, developed from a sediment microcosm from the Chesapeake Bay “sediment core-D” with three-times continuous transfers described in Example 1.
TCC and TCS Exposure. For the TCC and TCS test, 1 ml ATCC mixed vitamin solution (Catalog No. MD-VS), 0.25 ml 20 mg/L vitamin B12 solution and 1 ml 500 mM lactate solution were filtered with a 0.2 μm sterile filter and added to 92.5 ml sterile anaerobic media in 160 ml serum bottles, and then 5 ml of culture was transferred into this fresh media. Lactate served as electron donor and carbon source. Fifty μl TCE stock solutions ([…] in methanol) were injected into the media with 500-μl Hamilton air-tight syringe (Reno, Nev.), and the final TCE concentration was 35 μmol per serum bottle. Ten μl TCC or TCS stock solutions in methanol or pure methanol was injected with 10 μl Hamilton air-tight syringe (Reno, Nev.) into the serum bottle. Three concentration levels of TCC or TCS stock solutions were made and listed in Table 8 to make the three final concentration levels of TCC or TCS. The middle concentration level of TCC and TCS in cultures was set according to the solubility of TCC and TCS at 20° C. The highest concentration of TCC and TCS is 10 times the solubility of TCC and TCS at 20° C., and the lowest concentration of TCC and TCS is 10% the solubility of TCC and TCS at 20° C.
The total aqueous volume in 160-ml serum bottle was 100 ml. Four BDI and four DehaloR̂2 cultures were generated for each concentration of TCC or TCS, and three of them were used for TCE dechlorination analysis and the other one was used for DNA extractions and molecular analysis. The error bars in the figures are the standard deviations for three independent cultures under the same conditions.
All cultures were stored in the dark and incubated at 30° C.
Analytical Methods. The concentrations of TCE and their reductive-dechlorinating byproducts, 1,1-DCE, cis-DCE, trans-DCE, VC, and ethene were quantified by gas chromatography with a flame ionization detector (GC-FID).
200 μl headspace gas samples were withdrawn from 160 ml serum bottle with 500 μl gas-tight syringes (Hamilton Company, Reno, Nev.) and analyzed by a Shimadzu GC-2010 (Columbia, Md.) with an Rt™-QSPLOT capillary column (30 m×0.32 mm×10 μm, Restek, Bellefonte, Pa.) and a flame ionization detector (FID). The initial oven temperature was 110° C. and was held constant for 5 min. Then the temperature was raised with a gradient of 10° C./min to 150° C., a second gradient at 20° C./min to 200° C., and a third gradient of 5° C./min to 220° C. At the end of this gradient, the oven temperature was held constant at 220° C. for 5 min. The temperature of FID and injector were 240° C. Ultra high purity helium was the carrier gas for the GC. Ultra high purity hydrogen and zero grade air were used for the FID.
Calibration curves for chlorinated compounds were determined based on the known mass of PCE, TCE, 1,1-DCE, cis-DCE and trans-DCE added to 160 ml serum bottles containing 100 ml of distilled-deionized water and equilibrated at 25° C. overnight. The contents were then analyzed using the Shimadzu GC-FID. Different volumes of 100 ppm and 1000 ppm VC and ethene gas were injected directly into GC using the 500 μl airtight syringe to make their calibration curves. The aqueous concentrations of PCE, TCE and their reaction products were calculated by using reported Henry's constants on the EPA website (Washington and Weaver, 2006)

[1] = highest level: 1.5 μM TCC or 35 μM TCS
[2] = lowest level: 0.015 μM TCC or 0.35 μM TCS
[3] = middle level: 0.15 μM TCC or 3.5 μM TCS

SMILES | TCE completely dechlorinated to ethene in BDI | TCE transformed to VC in BDI | Maximum formation rate VC in BDI [1] | Maximum formation rate cis-DCE in BDI [1] | Maximum utilization rate TCE in BDI [1] | Maximum utilization rate cis-DCE in BDI [1] | effect on TCE reductive dechlorination in BDI cultures [1] | Maximum formation rate Ethene in BDI [2] | Maximum formation rate VC in BDI [2] | Maximum formation rate cis-DCE in BDI [2] | Maximum utilization rate TCE in BDI [2] | Maximum utilization rate VC in BDI [2] | Maximum utilization rate cis-DCE in BDI [2] | effect on TCE reductive dechlorination in BDI cultures [2] | Maximum formation rate Ethene in BDI [3] | Maximum formation rate VC in BDI [3] | Maximum formation rate cis-DCE in BDI [3] | Maximum utilization rate TCE in BDI [3] | Maximum utilization rate VC in BDI [3] | Maximum utilization rate cis-DCE in BDI [3] | other results
O=C(Nc1ccc(Cl)cc1)Nc1ccc(Cl)c(Cl)c1 [TCC, 3-(4-chlorophenyl)-1-(3,4-dichlorphenyl) urea] | 10% | 90% | 1.65 μmol vial^−1 day^−1 | 3.94 μmol vial^−1 day^−1 | 4.22 μmol vial^−1 day^−1 | 1.29 μmol vial^−1 day^−1 | significantly inhibited TCE reductive dechlorination | 2.32 μmol vial^−1 day^−1 | 1.11 μmol vial^−1 day^−1 | 7.98 μmol vial^−1 day^−1 | 9.23 μmol vial^−1 day^−1 | 1.35 μmol vial^−1 day^−1 | 2.99 μmol vial^−1 day^−1 | had no influence on TCE reductive dechlorination; also recorded: did not show any obvious effect | 3.3 μmol vial^−1 day^−1 | 1.38 μmol vial^−1 day^−1 | 7.04 μmol vial^−1 day^−1 | 7.47 μmol vial^−1 day^−1 | 0.33 μmol vial^−1 day^−1 | 2.6 μmol vial^−1 day^−1 | Maximum formation rate Ethene in BDI (highest level: 1.5 μM TCC): 0.19 μmol vial^−1 day^−1; effect on TCE reductive dechlorination in BDI cultures [3]: did not show any obvious effect
Oc1cc(Cl)ccc1Oc1ccc(Cl)cc1Cl [TCS, 5-chloro-2-[2,4-dichloro-phenoxy]-phenol] | no ethene was produced | 7% | 1.21 μmol vial^−1 day^−1 | 6.41 μmol vial^−1 day^−1 | 8.75 μmol vial^−1 day^−1 | 0.11 μmol vial^−1 day^−1 | significantly inhibited TCE reductive dechlorination | 2.61 μmol vial^−1 day^−1 | 1.14 μmol vial^−1 day^−1 | 6.69 μmol vial^−1 day^−1 | 9.58 μmol vial^−1 day^−1 | 1.14 μmol vial^−1 day^−1 | 2.72 μmol vial^−1 day^−1 | had no influence on TCE reductive dechlorination; also recorded: did not show any obvious effect | 3.95 μmol vial^−1 day^−1 | 1.54 μmol vial^−1 day^−1 | 7.24 μmol vial^−1 day^−1 | 9.36 μmol vial^−1 day^−1 | 0.62 μmol vial^−1 day^−1 | 2.39 μmol vial^−1 day^−1 and 2.4 μmol vial^−1 day^−1 | VC produced in BDI (35 μM TCS): 3.6 µmol; TCE not dechlorinated in BDI (35 μM TCS, 27-day experiment): approximately 9%; TCE transformed to cis-DCE in BDI (35 μM TCS, within 27 days): 84%; effect on TCE reductive dechlorination in BDI cultures [3]: did not show any obvious effect
